Assay results published in patent US10568978B2, “Radiopharmaceutical synthesis methods” (Lantheus Medical Imaging, Inc., priority 2012, dated 2020).
One block for each compound: values may come before it.

Legend:
Assay type in all cases: physicochemical
[1] = Filter retention: percent recovery of analyte after syringe-pump filtration, HPLC at 295 nm pre- and post-filtration
Procedure: In particular, compositions comprising BMS-747158-01 and BMS-747159-01 were prepared in water comprising absolute ethanol (4 wt. %) and sodium ascorbate (50 mg/mL; 5 wt. %) then loaded into plastic syringes (Norm-Ject™; 12 mL) and placed onto an automated syringe pump. Select filters were then placed on each respective syringe and the composition pumped through the units in a controlled fashion. In all cases, gravimetric analysis of the solution transfer process was performed in order to monitor efficiency of the liquid handling steps. Subsequent quantitative analysis of filter retention was then performed following HPLC determination of the absolute concentration of each analyte in both the pre- and post-filtered solutions; HPLC analysis with detection at 295 nm was performed according to established methods. The following equation was then utilized to determine the percent recovery for each analyte:
[formula] Note a higher value of percent recovery equates to lower retention of the respective analyte, and thus improved overall filter performance. The analysis described herein captures both the mass of the compound that is retained as well as the volume of liquid that is retained. As no normalization is performed, the analysis thus allows for direct comparison of relevant filter parameters.
The compositions comprising BMS-747158-01 and BMS-747159-01 were passed through a variety of filters, as described herein. Individual filter parameters varied in terms of both membrane and housing composition, overall filter diameter, and in some instances the applied coating (Table 1). Further, effects of both individual analyte concentration as well as the overall rate of filtration were also evaluated.

[2] = Measured log D (relative lipophilicity of analytes); settings: relative to BMS-747158-01
[3] = Retention of flurpiridaz F 18 on PVDF, PTFE and RC filters with synthesis modules; settings: Siemens Explora GN/LC (manual) and GE TracerLab MX (automated) modules; FIG. 9
Excerpt: This was particularly surprising since structurally and chemically, the PVDF filter is more similar to the PTFE filter than the RC filter. Further, the data substantiate that use of the RC filter membrane improves recovery of ^18F-bearing radiopharmaceuticals across multiple synthesis module platforms.

- retention by filter housing composition ([1]; HDPE and PP housings (no aromatic rings), filters of identical diameter, FIG. 5): retained lower amounts
- retention on PTFE and RC membranes in comparison to PVDF ([1]; PTFE and RC filter membranes vs PVDF, FIG. 8): retained lower amounts
- retention by membrane composition ([1]; PVDF membrane vs other membranes, filters of identical diameter, FIG. 4): retains the greatest amount
- retention after the initial filtration ([1]; Pall PVDF filter, initial filtration, FIG. 6): retained large amounts
SMILES: CC(C)(C)n1ncc(OCc2ccc(COCCF)cc2)c(Cl)c1=O [BMS-747158-01]

- lipophilicity (measured log D, relative) [2]: lower inherent lipophilicity
SMILES: CC(C)(C)n1ncc(OCc2ccc(COCCO)cc2)c(Cl)c1=O [BMS-747159-01]

- retention on PTFE and RC filters vs PVDF filter [3]: retain far less
SMILES: CC(C)(C)n1ncc(OCc2ccc(COCC[18F])cc2)c(Cl)c1=O [flurpiridaz F 18]
